US11208642B2, “Microbial syringol utilization” (Alliance for Sustainable Energy, LLC, priority 2018, dated 2021)

Legend:
GcoA-F169A and GcoB = target: T1, GcoA-F169A and GcoB (Amycolatopsis sp., UniProt P0DPQ7, F169A/H210Q); assay: Uncoupling reactions: H2O2 by Amplex Red/HRP assay referenced to NADH consumed; type: biochemical
T1 construct: GST (N, cleaved yes); made in house; host or cells: E. coli Rosetta 2 (DE3)
Procedure: The ^a in Table 3 notes that 0.2 μM GcoA-F169A and GcoB were reacted with 100 μg catalase, 100 or 200 μM NADH, and 100 μM substrate in 25 mM HEPES, 50 mM NaCl, pH 7.5, 25° C., 210 μM O2. Endpoint analyses were done to quantify formaldehyde produced, which was then referenced to NADH consumed. The ^b in Table 3 notes that the same reaction done above was repeated to quantify H2O2 produced using the Amplex Red/HRP assay. The amount of hydrogen peroxide was then referenced to NADH consumed.
Detection of H2O2 via HRP and Amplex Red assay. A colorimetric assay involving horseradish peroxidase (HRP) and Amplex Red was used to quantify H2O2 in the reaction between GcoA-F169A GcoA/GcoB, NADH and guaiacol, syringol, or 3MC.
Detection of H2O2 via horseradish peroxidase (HRP) and Amplex Red assay. The reaction between 100 μM guaiacol or 3MC with 0.2 μM F169A/GcoB and 100 μM NADH in air-saturated buffer (25 mM HEPES, 50 mM NaCl, pH 7.5) was monitored continuously in a quartz cuvette, using the NADH consumption assay described above. The same thing was done for syringol, but with either 100 or 200 μM NADH. When there was no longer any change in the spectra, e.g., the reaction was completed, 100 μL was removed from the cuvette and pipetted into a 96-well microplate. A 5 mL solution containing 50 μL of 10 mM Amplex Red (prepared in DMSO and stored at −20° C.) and 100 μL of 10 U/mL HRP was made up in the above buffer. One hundred μL of this was added to each of the wells with each reaction sample. The plate was incubated in the dark at room temperature for 30 min, at which point the absorbance at 572 nm was recorded by a Varioskan Lux microplate reader (Thermo Scientific). The absorbance was compared to a standard curve with 0-100 μM H2O2 to quantify the amount of peroxide produced in the reactions.

GcoA-F169A [1] = target: T2, GcoA-F169A (Amycolatopsis sp., UniProt P0DPQ7, F169A/H210Q); assay: Substrate dissociation constant (KD) by UV/vis spin-state titration; type: binding
T2 construct: GST (N, cleaved yes); made in house; host or cells: E. coli Rosetta 2 (DE3)
Procedure: Guaiacol (FIG. 1A) caused the Soret peak (λ=417 nm) of GcoA-F169A to shift to 387 nm, indicating the conversion of a low-spin to a high-spin species. Syringol (FIG. 1B) caused the Soret peak (λ=417 nm) of GcoA-F169A to shift to 387 nm, indicating the conversion of a low-spin to a high-spin species. 3MC (FIG. 1C) caused the Soret peak (λ=417 nm) of GcoA-F169A to shift to 387 nm, indicating the conversion of a low-spin to a high-spin species. 0-60 μM substrate was titrated into a solution containing 3 μM GcoA-F169A and air-saturated buffer (25 mM HEPES, 50 mM NaCl, pH 7.5, 25° C.) and the spectra monitored until there was no more change, indicating saturation. The solution reached equilibrium prior to each substrate addition. […] Error bars represent ±1 standard deviation of two or more runs.
Zero to 60 μM of guaiacol, syringol, or 3MC in 0.5 or 1 μM aliquots, were titrated into a cuvette containing 3 μM F169A GcoA in 25 mM HEPES, 50 mM NaCl, pH 7.5. The spectrum after each substrate addition was recorded, beginning with no substrate bound. The solution reached equilibrium before the next addition. A difference spectrum was made to illustrate the shift from a low-spin aquo-heme complex to the high-spin substrate-bound complex (spectral shift from 417 nm to 388 nm). […] The absorbance at 388 nm (AbS388-417 nm) was plotted as a function of [substrate], yielding a quadratic curve that was fit to equation (5) to determine the KD.
Where L0, Et, KD, and ΔAbsmax are the ligand concentrations, total protein (subunit) concentration, the equilibrium dissociation constant, and the maximum AbS388-417nm, respectively. Reported values are the average of 2 or more measurements.

GcoA-F169A [2] = target: T2, GcoA-F169A; assay: Rate of NADH disappearance (UV/vis) with each substrate; type: biochemical; settings: GcoA-F169A with the named substrate
Procedure: To address whether guaiacol and/or syringol would serve as substrates of GcoA-F169A, the disappearance of NADH (UV/vis) and aromatic substrate (HPLC) was monitored over time (FIG. 1). The rates of organic substrate and NADH consumption were robust and the same within error, regardless of whether guaiacol or syringol was used (5.3±0.3 μM guaiacol s^−1 μmol GcoA-F169A^−1, 5.8±0.8 μM NADH s^−1 μmol GcoA-F169A-1; 4.1±0.3 μM syringol s^−1 μmol GcoA-F169A^−1, 5.1±0.8 μM NADH s^−1 μmol GcoA-F169A^−1).
Steady state kinetics of F169A. 0.2 μM each of F169A GcoA and GcoB were dissolved in air-saturated buffer (25 mM HEPES, 50 mM NaCl) in a cuvette at pH 7.5, 25° C. 100 μg/mL catalase was added to each reaction to capture any H2O2 formed during the uncoupled reaction. A saturating amount of NADH (≥5 KM, 300 μM) was added and a background rate of NADH oxidation in air (about 210 μM O2) recorded via continuous scanning of the UV/vis spectrum (Varian Cary 50). 20-300 μM guaiacol or syringol 2-20 mM stock dissolved in DMSO was added and the reaction was monitored via measurement of UV/vis spectra for several minutes. The initial velocity was determined by disappearance of the characteristic NADH absorbance at 340 nm ([…]=6.22 mM^−1 cm^−1). A plot of vi versus the concentration of guaiacol was fit to equation 4 to obtain kcat, KM, and kcat/KM. For specific activity determination, the above method was used but with saturating (300 μM) guaiacol, syringol, or 3-methoxycatechol (3MC), and in the presence of all F169 GcoA mutants (A, H, S, V, I, L). The linear portion of the concentration of NADH versus time was fit and referenced to the amount of GcoA used (0.2 μM). Reported values are the average of at least 3 measurements and reported errors are standard deviations. vi=Vmax[S]/(KM+[S]) Equation (4): […]

T2 sequence (P0DPQ7 whole entry F169A/H210Q): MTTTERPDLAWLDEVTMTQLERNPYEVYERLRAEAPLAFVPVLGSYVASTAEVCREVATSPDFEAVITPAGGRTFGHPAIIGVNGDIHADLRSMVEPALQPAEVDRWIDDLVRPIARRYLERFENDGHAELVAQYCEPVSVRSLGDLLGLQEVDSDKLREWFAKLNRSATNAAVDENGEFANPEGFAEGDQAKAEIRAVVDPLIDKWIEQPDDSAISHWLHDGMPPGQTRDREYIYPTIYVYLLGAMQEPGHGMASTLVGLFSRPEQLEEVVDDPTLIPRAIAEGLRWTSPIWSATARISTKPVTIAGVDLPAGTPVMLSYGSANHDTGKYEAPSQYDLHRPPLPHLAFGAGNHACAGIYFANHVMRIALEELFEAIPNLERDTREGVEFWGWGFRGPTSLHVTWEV
T1 sequence (P0DPQ7 whole entry F169A/H210Q): as above

SMILES	% H2O2 produced (GcoA-F169A and GcoB; 100 μM substrate + 100 μM NADH) [%]	Kd (GcoA-F169A [1]) [µM]	Rate of NADH consumption (UV/vis) (GcoA-F169A [2])	% H2O2 produced (GcoA-F169A and GcoB; 100 μM substrate + 200 μM NADH) [%]
COc1cccc(O)c1O [3MC, 3-methoxycatechol]	17 ± 0.2	9.5 ± 0.02	5.6±0.8 μM NADH s^−1 μmol GcoA-F169A^−1	–
COc1ccccc1O [guaiacol, 2-methoxyphenol]	3.7 ± 0.6	7.1 ± 0.1	5.8±0.8 μM NADH s^−1 μmol GcoA-F169A^−1	–
COc1cccc(OC)c1O [syringol, 2,6-dimethoxyphenol]	7.4 ± 0.03	1.7 ± 0.07	5.1±0.8 μM NADH s^−1 μmol GcoA-F169A^−1	7.9 ± 0.5
